This assay concerns the target T1, GAK (Homo sapiens, UniProt O14976).
T1 construct: endogenous in cells; host or cells: THP-1
T1 sequence (O14976 1-1311): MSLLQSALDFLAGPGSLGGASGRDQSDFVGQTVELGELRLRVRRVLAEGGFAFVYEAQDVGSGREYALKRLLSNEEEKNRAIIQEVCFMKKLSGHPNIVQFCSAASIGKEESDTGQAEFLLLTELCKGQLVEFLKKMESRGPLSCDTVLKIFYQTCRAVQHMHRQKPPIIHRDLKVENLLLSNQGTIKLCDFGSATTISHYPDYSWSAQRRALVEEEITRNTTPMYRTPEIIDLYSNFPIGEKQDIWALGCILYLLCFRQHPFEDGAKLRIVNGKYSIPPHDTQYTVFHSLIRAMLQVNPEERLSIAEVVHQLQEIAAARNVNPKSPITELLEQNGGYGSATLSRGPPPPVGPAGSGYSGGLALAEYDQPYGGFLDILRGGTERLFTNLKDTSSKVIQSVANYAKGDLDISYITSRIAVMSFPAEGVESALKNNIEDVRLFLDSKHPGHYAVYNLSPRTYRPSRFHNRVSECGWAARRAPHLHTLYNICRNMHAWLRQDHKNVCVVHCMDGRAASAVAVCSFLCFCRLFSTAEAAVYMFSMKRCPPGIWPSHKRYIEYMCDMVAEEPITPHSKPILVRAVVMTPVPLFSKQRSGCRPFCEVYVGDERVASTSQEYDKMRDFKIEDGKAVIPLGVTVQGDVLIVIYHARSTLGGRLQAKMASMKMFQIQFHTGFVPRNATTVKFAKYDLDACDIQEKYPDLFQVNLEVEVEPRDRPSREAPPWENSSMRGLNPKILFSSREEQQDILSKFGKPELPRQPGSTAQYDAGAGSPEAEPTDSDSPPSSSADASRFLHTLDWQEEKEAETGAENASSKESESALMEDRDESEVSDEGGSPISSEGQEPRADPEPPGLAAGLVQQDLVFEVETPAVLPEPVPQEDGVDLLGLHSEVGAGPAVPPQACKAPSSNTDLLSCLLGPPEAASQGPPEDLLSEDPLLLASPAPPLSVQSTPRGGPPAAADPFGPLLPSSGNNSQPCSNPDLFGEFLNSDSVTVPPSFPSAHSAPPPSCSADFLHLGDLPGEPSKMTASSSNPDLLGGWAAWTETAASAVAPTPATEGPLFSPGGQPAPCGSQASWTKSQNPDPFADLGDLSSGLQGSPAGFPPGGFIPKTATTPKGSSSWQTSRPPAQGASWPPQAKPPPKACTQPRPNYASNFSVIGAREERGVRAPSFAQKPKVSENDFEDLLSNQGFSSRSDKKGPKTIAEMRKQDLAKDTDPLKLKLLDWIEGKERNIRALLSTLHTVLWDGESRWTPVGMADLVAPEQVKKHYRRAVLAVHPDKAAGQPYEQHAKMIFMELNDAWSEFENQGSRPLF
Put plainly: Expression proteomics in THP-1 cells, GAK level. In kind it is cell-based. The conditions noted are these: GAK protein log2 fold change, 24 h, 1.0 μM. The method, then:
THP-1 cells were seeded at a concentration of 3×10^6 cells in T175 flasks with 60 mL growth medium (RPM11640+10% FBS). […] of a 10× compound solution prepared in growth medium (DMSO), IAP PROTAC) was added and the cells were treated for the indicated time points (6 or 24 h) at 37° C., 5% CO2. For harvesting the cells were collected into falcon tubes on ice, centrifuged and washed twice in cold PBS (Life technologies). After the last washing step the supernatant was removed and the pellets were snap-frozen in liquid N2 and stored at −80° C. and lysed in 2% SDS for 3 min at 95° C. in a thermomixer (Thermo Fisher Scientific), followed by digestion of DNA with Benzonase at 37° C. for 1.5 h. Lysate was cleared by centrifugation an protein concentration in supernatant was determined by BCA assay.
Leukemia 25, 89-100 (2011).
Samples were dried in vacuo and resuspended in 0.05% trifluoroacetic acid in water. […]
Reporter ion intensities were read from raw data and multiplied with ion accumulation times (the unit is milliseconds) so as to yield a measure proportional to the number of ions;
Nat Biotech 29, 255-265 (2011). this measure is referred to as ion area Savitski, M. M. et al. Delayed Fragmentation and Optimized Isolation Width Settings for Improvement of Protein Identification and Accuracy of Isobaric Mass Tag Quantification on Orbitrap-Type Mass Spectrometers. […]

We go through 1 compound from US20190152946A1, “Novel Compounds” (GlaxoSmithKline Intellectual Property Development Limited, priority 2016, published 2019).

Turning to `CNC(=O)c1ccccc1Nc1nc(Nc2ccc(N3CCN(CCOCCOCCOCCOc4ccc5c(c4)CN(C(=O)[C@@H](NC(=O)[C@H](C)NC)C(C)(C)C)[C@H](C(=O)N[C@@H]4CCCc6ccccc64)C5)CC3)cc2)ncc1Cl` [IAP, (S)-7-(2-(2-(2-(2-(4-(4-((5-Chloro-4-((2-(methylcarbamoyl)phenyl)amino)pyrimidin-2-yl)amino)phenyl)piperazin-1-yl)ethoxy)ethoxy)ethoxy)ethoxy)-2-((S)-3,3-dimethyl-2-((S)-2-(methylamino)propanamido)butanoyl)-N-((R)-1,2,3,4-tetrahydronaphthalen-1-yl)-1,2,3,4-tetrahydroisoquinoline-3-carboxamide], the “log2fc_IAP_24 h_1.0 μM_n1” value (replicate n1) was −2.02. In addition, the “log2fc_IAP_24 h_1.0 μM_n2” value (replicate n2) is on record as −2.39.
